Reference: US20140099354A1, “BIOPASSIVATING MEMBRANE STABILIZATION BY MEANS OF NITROCARBOXYLIC ACID-CONTAINING PHOSPHOLIPIDS IN PREPARATIONS AND COATINGS” (priority 2011, published 2014)

Tested on: sciatic nerve
Assay: Viability of cryopreserved nerve grafts (Annexin-V staining, FACS)
Format: cell-based, rats
Settings: 100 mmolar solution 1 hour; −30° C. 72 hours

Row | Compound | proportion of living cells relative to non-frozen control [%]
1 | 1-Palmitoyl-2-(E-9-nitrooleoyl)-sn-3-glycero-phosphatidylinositol [PNOPI] | 82
2 | CCCCCC/C(=C\CCCCCCCC(=O)OC[C@H](COP(=O)([O-])OCC[N+](C)(C)C)OC(=O)CCCCCCC/C=C(\CCCCCC)[N+](=O)[O-])[N+](=O)[O-] [Example N19, 1,2-di-(E-10-nitropalmitoleoyl)-sn-3-glycerophosphocholine] | 84
3 | CCCCCCCC/C=C\CCCCCCCC(=O)O[C@H](COC(=O)CCCCCCCCCCCCCCC)COP(=O)(O)OC1[C@H](O)[C@H](O)C(O)[C@H](O)[C@H]1O (some centres unmarked) [POPI, 1-Palmitoyl-2-oleoyl-sn-3-glycero-phosphatidylinositol, reference compound] | 20

Tested on: ovarian tissue strips
Assay: Cryopreservation of ovarian tissue strips: intact follicles
Settings: liquid nitrogen 14 days, cultured 14 days
Method: Ovar ectomy was performed in female sheep; resected tissues were cut into 60 ovarian tissue strips. The ovarian strips were either cultured directly (n=4) or prepared with a usual solution for vitrification (VS group; Vitrification Kit, Sage, USA) or incubated with nitrated PLs (NPL group). For this purpose, the tissue strips were bathed in an equibrilation solution (ART-8025-A) which consisted of MOPS-buffered amino acids and gentamicin sulfate (10 mg/l), and 7.5% (v/v) of each DMSO and ethylene glycol and 12 mg/ml human serum albumin for 30 minutes. Thereafter the strips of the VS group were placed in the vitrification solution (ART-8025-B), which is a MOPS-buffered solution containing amino acids and gentamicin sulfate, that contain 15% (v/v) each DMSO and ethylenglycol, 12 mg/ml human albumin and 0.6 M sucrose. The strips of the NPL group were placed in a solution containing 25% (v/v) nitrated PL SNOPC or PNLPC in a PBS-buffered 1% DMSO solution containing 5% human albumin for 60 minutes. The treated tissue strips were then immersed into liquid nitrogen and kept here for 14 days. Then removal and warming of the tissue pieces was performed in AIM-V medium (Gibco, Invitrogen) in a sterile culture dish, first up to 5° C. within 20 minutes, then heated further in a water bath up to 37° C., within the following 60 minutes. The culture medium was replaced and specimens cultured for 14 days. After this, the tissue pieces were fixed, embedded in paraffin and cut, followed by histological examination. […] The total number of intact follicles in the control group was taken as a reference to the number of follicles in the cryopreserved groups.
The culture medium has been exchanged by every 2nd day; samples for hormone analysis were taken and frozen at that time. Determination of 17 β-estradiol and progesterone were performed with a radio-immuno assay (diagnostic systems laboratories, USA).

Row | Compound | rate of intact follicles relative to the control group [%]
4 | CCCCCCCCCCCCCCCC(=O)OC[C@H](COP(=O)([O-])OCC[N+](C)(C)C)OC(=O)CCCCCCCC(C(O)CCCCCCCC)[N+](=O)[O-] (some centres unmarked) [Example O2, 1-palmitoyl-2-(9-nitro-10-hydroxy-stearoyl)-sn-3-glycerophosphocholine] | 87
5 | 1,2-di-(dinitroeicosapentaenoyl)-sn-glycero-3-phosphatidylcholines [Example N13] | 91
6 | 1,2-di-(9-nitro-α-linolenoyl)-sn-3-glycerophosphocholine, 1,2-di-(10-nitro-α-linolenoyl)-sn-3-glycerophosphocholine, 1-(9-nitro-α-linolenoyl)-2-(10-nitro-α-linolenoyl)-sn-3-glycerophosphocholine and 1-(10-nitro-α-linolenoyl)-2-(9-nitro-α-linolenoyl)-sn-3-glycerophosphocholine [Example N11] | 95
7 | 1,2-di-(nitroarachidonoyl)-sn-glycero-3-phosphatidylcholines [Example N3] | 94
8 | CC/C=C\C/C=C\C/C=C\C/C=C\C/C=C\C/C=C\CCC(=O)OC[C@H](COP(=O)([O-])OCC[N+](C)(C)C)OC(=O)CCCCCCC/C=C(\CCCCCC)[N+](=O)[O-] [Example P11, 1-DHA-2-(E-10-nitropalmitoleoyl)-sn-3-glycerophosphocholine] | 97
9 | 1,2-Di-(9-hydroxy-10-nitrostearoyl)-sn-3-glycerophosphocholine, 1-(9-hydroxy-10-nitrostearoyl)-2-(10-hydroxy-9-nitrostearoyl)-sn-3-glycerophosphocholine, 1-(10-hydroxy-9-nitrostearoyl)-2-(9-hydroxy-10-nitrostearoyl)-sn-3-glycerophosphocholine and 1,2-di-(10-hydroxy-9-nitrostearoyl)-sn-3-glycerophosphocholine [Example O3] | 91
10 | 1,2-di-(nitro-γ-linolenoyl)-sn-glycero-3-phosphatidylcholines [Example N5] | 89
11 | 1,2-di-(nitroarachidonoyl)-sn-glycero-3-phosphatidylcholines [Example N4] | 92
12 | 1-Palmitoyl-2-(9-hydroxy-10-nitrostearoyl)-sn-3-glycerophosphocholine and 1-palmitoyl-2-(10-hydroxy-9-nitrostearoyl)-sn-3-glycerophosphocholine [Example O4] | 93
13 | 1,2-di-(dinitrolinoleoyl)-sn-glycero-3-phosphatidylcholines [Example N12] | 88
14 | CCCCCCCC/C(=C\CCCCCCCC(=O)O[C@H](COC(=O)CCCCC1CCSS1)COP(=O)([O-])OCC[N+](C)(C)C)[N+](=O)[O-] (some centres unmarked) [Example P9, 1-liponoyl-2-(E-10-nitrooleoyl)-sn-3-glycerophosphocholine] | 90
